ChEMBL document CHEMBL1909046, “DrugMatrix in vitro pharmacology data”

Tests used:
[1] = target: Cannabinoid receptor 1 (Homo sapiens, UniProt P21554); assay type: cell membranes, Membrane; details: chem-1; note: in other assays of this panel Not Active means under 50% inhibition at 10 µM
[2] = target: Vasopressin V1a receptor (Homo sapiens, UniProt P37288); assay type: cell membranes, Membrane; details: hek293; note: in other assays of this panel Not Active means under 50% inhibition at 10 µM
[3] = target: Nitric oxide synthase 1 (Rattus norvegicus, UniProt P29476); assay type: tissue-based, Cerebellum; note: in other assays of this panel Not Active means under 50% inhibition at 10 µM
Nitric oxide synthase 1, sequence (P29476 whole entry): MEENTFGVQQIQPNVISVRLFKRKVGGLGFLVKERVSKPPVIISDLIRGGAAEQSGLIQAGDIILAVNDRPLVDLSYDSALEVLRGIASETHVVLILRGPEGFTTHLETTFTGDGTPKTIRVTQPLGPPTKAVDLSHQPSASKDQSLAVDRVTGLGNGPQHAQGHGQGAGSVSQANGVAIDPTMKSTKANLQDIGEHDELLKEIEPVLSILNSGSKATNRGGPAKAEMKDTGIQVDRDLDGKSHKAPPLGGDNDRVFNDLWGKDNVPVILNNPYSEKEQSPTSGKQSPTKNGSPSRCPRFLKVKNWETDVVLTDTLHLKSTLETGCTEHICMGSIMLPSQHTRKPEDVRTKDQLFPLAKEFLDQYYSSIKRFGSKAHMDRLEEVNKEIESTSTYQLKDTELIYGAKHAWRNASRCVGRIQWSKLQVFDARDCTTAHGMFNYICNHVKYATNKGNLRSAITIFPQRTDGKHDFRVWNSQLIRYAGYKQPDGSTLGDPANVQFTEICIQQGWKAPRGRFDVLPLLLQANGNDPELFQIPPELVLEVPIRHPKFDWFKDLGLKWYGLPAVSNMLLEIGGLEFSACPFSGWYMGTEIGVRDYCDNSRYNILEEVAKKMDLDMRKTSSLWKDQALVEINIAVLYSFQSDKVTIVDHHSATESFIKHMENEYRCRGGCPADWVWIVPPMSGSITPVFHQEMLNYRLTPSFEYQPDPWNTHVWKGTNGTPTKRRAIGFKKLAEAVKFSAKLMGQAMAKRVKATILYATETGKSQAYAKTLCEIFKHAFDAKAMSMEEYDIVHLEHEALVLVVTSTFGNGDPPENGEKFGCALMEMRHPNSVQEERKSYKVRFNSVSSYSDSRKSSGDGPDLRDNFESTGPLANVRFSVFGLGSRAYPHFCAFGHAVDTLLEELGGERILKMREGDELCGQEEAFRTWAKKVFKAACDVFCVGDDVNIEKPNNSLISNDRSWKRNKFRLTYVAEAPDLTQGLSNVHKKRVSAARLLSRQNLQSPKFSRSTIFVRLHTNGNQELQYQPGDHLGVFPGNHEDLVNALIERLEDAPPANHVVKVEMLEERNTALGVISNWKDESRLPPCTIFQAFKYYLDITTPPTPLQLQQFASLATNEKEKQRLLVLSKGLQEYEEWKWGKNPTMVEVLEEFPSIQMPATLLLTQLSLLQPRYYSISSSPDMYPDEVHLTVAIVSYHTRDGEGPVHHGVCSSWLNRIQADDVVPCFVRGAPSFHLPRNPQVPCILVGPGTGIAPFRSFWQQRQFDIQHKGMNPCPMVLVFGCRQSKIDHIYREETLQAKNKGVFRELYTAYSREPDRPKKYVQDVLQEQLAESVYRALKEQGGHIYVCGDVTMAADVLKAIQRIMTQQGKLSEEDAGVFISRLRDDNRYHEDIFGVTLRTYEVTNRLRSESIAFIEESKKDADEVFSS

[4] = target: Prostaglandin G/H synthase 1 (Homo sapiens, UniProt P23219); test: biochemical; assay type: tissue-based, Platelet; details: platelet;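 note: inhibition of COX-1 enzyme activity, with arachidonic acid supplied as substrate; in other assays of this panel Not Active means under 50% inhibition at 10 µM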
Prostaglandin G/H synthase 1, sequence (P23219 whole entry): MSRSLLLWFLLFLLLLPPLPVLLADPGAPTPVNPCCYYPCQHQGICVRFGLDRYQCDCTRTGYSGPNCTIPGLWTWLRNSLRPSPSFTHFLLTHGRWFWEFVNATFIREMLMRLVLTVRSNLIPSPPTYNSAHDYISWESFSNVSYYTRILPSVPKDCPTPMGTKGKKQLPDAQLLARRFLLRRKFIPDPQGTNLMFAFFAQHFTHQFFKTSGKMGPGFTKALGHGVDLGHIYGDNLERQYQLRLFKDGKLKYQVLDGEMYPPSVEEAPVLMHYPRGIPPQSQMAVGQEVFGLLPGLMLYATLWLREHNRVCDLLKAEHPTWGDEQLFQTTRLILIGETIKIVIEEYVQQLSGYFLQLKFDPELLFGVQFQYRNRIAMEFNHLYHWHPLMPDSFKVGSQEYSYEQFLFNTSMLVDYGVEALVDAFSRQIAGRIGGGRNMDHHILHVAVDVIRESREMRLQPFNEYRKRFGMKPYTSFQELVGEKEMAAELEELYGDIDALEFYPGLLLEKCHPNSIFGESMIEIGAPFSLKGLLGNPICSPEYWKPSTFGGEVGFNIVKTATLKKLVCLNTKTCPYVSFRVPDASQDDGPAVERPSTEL

[5] = DRUGMATRIX: beta-Lactamase enzyme inhibition (substrate: Nitrocefin); parameters: species or system Bacillus cereus; details: Not Active = under 50% inhibition at 10 µM
[6] = DRUGMATRIX: Sodium/nucleoside co-transporter radioligand binding (ligand: nitrobenzylthioinosine); assay type: cell membranes, Cavia porcellus, Dunkin-Hartley, Cerebral cortex, Membrane; details: Not Active = under 50% inhibition at 10 µM
[7] = target: 5-hydroxytryptamine receptor 1B (Rattus norvegicus, UniProt P28564); assay type: cell membranes, Wistar, Cerebral cortex, Membrane; note: in other assays of this panel Not Active means under 50% inhibition at 10 µM
5-hydroxytryptamine receptor 1B, sequence (P28564 whole entry): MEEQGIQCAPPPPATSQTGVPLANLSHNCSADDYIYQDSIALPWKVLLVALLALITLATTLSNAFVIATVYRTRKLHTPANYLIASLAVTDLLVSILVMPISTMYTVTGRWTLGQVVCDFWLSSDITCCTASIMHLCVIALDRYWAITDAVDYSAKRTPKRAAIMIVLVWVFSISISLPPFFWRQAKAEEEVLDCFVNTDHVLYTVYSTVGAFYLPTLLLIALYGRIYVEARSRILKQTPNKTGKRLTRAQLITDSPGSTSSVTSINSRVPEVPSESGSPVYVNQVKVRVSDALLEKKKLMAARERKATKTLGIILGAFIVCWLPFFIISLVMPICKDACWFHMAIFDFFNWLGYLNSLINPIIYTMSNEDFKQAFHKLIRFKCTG

[8] = target: cGMP-specific 3',5'-cyclic phosphodiesterase (Homo sapiens, UniProt O76074); test: DRUGMATRIX: Phosphodiesterase PDE5 enzyme inhibition (substrate: [3H]cGMP + cGMP); assay type: tissue-based, Platelet; details: platelet; Not Active = under 50% inhibition at 10 µM
[9] = target: T1, 3-hydroxy-3-methylglutaryl-coenzyme A reductase (Homo sapiens, UniProt P04035); parameters: species or system Escherichia coli
T1 sequence (P04035 whole entry): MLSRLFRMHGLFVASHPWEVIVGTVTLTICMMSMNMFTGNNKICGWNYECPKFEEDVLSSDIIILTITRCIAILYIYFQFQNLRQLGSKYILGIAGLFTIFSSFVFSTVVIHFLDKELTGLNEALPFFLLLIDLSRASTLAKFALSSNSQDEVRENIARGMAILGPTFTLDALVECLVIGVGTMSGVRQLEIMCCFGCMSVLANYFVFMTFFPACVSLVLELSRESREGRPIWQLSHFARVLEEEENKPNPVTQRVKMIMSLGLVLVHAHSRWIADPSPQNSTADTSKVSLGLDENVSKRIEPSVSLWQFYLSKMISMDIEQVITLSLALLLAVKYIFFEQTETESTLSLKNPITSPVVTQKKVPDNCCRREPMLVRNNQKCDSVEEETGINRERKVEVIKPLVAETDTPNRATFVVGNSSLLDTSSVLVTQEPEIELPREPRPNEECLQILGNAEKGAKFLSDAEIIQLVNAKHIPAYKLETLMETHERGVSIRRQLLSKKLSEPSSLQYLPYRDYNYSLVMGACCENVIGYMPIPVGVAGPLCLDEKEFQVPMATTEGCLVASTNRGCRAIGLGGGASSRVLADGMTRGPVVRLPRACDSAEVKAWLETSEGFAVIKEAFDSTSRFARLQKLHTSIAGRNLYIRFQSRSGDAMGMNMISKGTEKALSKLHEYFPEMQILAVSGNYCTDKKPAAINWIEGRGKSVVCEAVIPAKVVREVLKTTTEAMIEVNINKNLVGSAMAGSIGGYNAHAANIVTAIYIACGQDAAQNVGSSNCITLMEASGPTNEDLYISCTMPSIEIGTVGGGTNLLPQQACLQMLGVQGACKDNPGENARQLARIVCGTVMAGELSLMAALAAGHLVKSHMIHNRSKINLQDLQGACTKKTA

[10] = target: D(3) dopamine receptor (Homo sapiens, UniProt P35462); test: DRUGMATRIX: Dopamine D3 radioligand binding (ligand: [3H] Spiperone); assay type: cell membranes, CHO, Membrane; details: cho
D(3) dopamine receptor, sequence (P35462 whole entry): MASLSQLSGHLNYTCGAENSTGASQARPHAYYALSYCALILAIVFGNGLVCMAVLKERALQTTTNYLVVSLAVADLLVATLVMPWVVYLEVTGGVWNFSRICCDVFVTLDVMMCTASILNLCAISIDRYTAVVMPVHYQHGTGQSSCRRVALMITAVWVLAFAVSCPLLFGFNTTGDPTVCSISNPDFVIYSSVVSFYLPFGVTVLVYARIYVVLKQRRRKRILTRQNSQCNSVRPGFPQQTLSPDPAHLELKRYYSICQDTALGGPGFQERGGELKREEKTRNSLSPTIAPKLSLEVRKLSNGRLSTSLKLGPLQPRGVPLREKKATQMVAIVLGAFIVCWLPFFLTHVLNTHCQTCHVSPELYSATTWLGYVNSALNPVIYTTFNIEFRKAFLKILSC

[11] = target: T2, Type-2 angiotensin II receptor (Homo sapiens, UniProt P50052); assay type: cell-based; details: cho-k1; note: in other assays of this panel Not Active means under 50% inhibition at 10 µM
T2 sequence (P50052 whole entry): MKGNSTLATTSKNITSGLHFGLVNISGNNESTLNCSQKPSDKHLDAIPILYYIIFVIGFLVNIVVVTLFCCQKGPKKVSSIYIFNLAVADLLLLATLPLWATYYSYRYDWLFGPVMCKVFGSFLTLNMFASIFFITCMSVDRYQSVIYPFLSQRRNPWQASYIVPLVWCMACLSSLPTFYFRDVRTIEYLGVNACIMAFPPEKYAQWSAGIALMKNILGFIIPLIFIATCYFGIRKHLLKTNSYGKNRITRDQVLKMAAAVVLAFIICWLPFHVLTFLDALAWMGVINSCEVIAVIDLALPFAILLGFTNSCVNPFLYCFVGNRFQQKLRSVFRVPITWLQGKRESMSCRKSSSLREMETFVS

[12] = target: T3, Neutrophil elastase (Homo sapiens, UniProt P08246); assay type: tissue-based
T3 sequence (P08246 whole entry): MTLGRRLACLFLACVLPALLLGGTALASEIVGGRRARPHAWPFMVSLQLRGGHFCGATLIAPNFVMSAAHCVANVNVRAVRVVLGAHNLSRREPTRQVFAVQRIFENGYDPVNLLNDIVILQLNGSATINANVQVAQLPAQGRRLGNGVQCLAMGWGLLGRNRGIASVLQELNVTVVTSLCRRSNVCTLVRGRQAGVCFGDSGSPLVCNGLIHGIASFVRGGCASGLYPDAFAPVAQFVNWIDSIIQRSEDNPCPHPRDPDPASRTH

[13] = target: Receptor tyrosine-protein kinase erbB-2 (Homo sapiens, UniProt P04626); test: biochemical; assay type: cell-based, Insect cells
[14] = target: T4, Vasoactive intestinal polypeptide receptor 1 (Homo sapiens, UniProt P32241); assay type: cell membranes, Membrane; details: ht-29; note: in other assays of this panel Not Active means under 50% inhibition at 10 µM
T4 sequence (P32241 whole entry): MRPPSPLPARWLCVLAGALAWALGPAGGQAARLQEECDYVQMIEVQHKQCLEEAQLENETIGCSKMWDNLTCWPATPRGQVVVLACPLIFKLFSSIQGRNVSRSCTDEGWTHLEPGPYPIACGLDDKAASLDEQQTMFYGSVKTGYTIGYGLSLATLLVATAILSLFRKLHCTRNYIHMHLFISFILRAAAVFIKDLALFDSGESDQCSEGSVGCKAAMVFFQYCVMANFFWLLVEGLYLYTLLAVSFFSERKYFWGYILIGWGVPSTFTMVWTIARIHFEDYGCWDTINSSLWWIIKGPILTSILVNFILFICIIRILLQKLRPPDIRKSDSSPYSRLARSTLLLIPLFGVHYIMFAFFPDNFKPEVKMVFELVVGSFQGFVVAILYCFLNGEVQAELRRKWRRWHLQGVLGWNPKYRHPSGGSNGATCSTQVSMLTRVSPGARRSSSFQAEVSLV

[15] = target: 5-hydroxytryptamine receptor 6 (Homo sapiens, UniProt P50406); assay type: cell membranes, HeLa, Membrane; note: in other assays of this panel Not Active means under 50% inhibition at 10 µM
5-hydroxytryptamine receptor 6, sequence (P50406 whole entry): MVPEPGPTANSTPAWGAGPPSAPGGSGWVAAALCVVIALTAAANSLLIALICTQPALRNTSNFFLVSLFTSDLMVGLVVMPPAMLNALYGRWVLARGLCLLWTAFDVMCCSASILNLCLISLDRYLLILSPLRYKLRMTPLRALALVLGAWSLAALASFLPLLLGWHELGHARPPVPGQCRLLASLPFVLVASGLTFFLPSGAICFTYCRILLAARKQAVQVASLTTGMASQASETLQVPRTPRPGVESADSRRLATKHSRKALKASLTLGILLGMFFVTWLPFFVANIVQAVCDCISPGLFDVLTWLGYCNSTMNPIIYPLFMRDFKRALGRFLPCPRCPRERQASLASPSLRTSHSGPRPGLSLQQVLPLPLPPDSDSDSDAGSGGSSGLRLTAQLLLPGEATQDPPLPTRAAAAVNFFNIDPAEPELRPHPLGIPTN

[16] = target: Cytochrome P450 2E1 (Homo sapiens, UniProt P05181); details: bti-tn-5b1-4; note: in other assays of this panel Not Active means under 50% inhibition at 10 µM
Cytochrome P450 2E1, sequence (P05181 whole entry): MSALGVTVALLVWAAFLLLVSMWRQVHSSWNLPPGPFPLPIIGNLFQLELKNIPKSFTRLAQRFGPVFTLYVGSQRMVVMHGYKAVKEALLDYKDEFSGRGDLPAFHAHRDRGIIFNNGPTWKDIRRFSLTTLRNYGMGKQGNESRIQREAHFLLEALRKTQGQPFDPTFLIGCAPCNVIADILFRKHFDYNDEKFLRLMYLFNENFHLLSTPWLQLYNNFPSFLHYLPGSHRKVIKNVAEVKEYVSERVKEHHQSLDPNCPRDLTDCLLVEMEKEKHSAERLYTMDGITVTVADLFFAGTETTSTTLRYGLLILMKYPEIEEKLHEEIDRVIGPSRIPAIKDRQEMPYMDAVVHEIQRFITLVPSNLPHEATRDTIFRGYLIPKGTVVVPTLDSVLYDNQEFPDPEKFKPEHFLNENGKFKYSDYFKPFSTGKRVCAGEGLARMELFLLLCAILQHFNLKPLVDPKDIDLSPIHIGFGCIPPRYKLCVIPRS

Cannabinoid receptor 1, sequence (P21554 whole entry): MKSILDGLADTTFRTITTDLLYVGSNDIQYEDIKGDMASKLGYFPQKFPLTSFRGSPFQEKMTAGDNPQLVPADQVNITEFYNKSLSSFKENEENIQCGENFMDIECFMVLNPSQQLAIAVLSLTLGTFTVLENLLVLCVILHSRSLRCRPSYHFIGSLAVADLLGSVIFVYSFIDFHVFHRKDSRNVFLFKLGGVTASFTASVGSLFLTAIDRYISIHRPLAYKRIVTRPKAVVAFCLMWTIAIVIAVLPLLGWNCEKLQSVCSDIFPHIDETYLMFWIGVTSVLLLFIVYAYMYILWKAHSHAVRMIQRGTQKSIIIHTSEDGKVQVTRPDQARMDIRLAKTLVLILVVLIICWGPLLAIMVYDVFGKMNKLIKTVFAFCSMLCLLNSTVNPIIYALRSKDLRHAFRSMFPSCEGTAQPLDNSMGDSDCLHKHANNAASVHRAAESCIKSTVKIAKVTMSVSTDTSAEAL
Vasopressin V1a receptor, sequence (P37288 whole entry): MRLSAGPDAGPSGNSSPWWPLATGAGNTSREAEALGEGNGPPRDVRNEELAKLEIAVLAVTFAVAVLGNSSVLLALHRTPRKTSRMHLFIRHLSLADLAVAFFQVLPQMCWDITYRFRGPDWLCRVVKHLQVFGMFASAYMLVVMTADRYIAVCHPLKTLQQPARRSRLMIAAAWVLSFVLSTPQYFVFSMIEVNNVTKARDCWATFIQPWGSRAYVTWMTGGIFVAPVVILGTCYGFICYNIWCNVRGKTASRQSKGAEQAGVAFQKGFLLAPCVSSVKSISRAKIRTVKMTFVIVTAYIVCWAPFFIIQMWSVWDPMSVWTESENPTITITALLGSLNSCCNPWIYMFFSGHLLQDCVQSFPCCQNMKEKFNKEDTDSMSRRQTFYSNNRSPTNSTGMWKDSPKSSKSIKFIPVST

## O=C1c2c(O)ccc(O)c2C(=O)c2c(NCCNCCO)ccc(NCCNCCO)c21 [MITOXANTRONE]
[1]
  IC50: Not Active
[2]
  IC50: Not Active
[3]
  IC50: Not Active
[4]
  IC50: Not Active
[5]
  IC50: Not Active
  Ki: Not Active
[6]
  IC50: Not Active
  Ki: Not Active
[7]
  IC50: Not Active
[8]
  IC50: Not Active
[9]
  IC50: Not Active
[10]
  IC50: Not Active
[11]
  IC50: Not Active
[12]
  IC50: Not Active
[13]; read-out: IC50
  IC50: 2040 nM
[14]
  IC50: Not Active
[15]; hela
  IC50: Not Active

## CC(C)(O)c1ccccc1CC[C@@H](SCC1(CC(=O)O)CC1)c1cccc(/C=C/c2ccc3ccc(Cl)cc3n2)c1 [MONTELUKAST]
[16]
  IC50: Not Active
  Ki: Not Active
[1]
  IC50: Not Active
[2]
  IC50: Not Active
[3]
  IC50: Not Active
[4]
  IC50: Not Active
[7]
  IC50: Not Active
[8]
  IC50: Not Active
[9]
  IC50: Not Active
[11]
  IC50: Not Active
[12]
  IC50: Not Active
[13]; insect cells
  IC50: Not Active
[14]
  IC50: Not Active
[15]; hela
  IC50: Not Active

## CSc1ccc2c(c1)N(CCC1CCCCN1C)c1ccccc1S2 (configuration not stated) [THIORIDAZINE]
[16]
  IC50: Not Active
  Ki: Not Active
[1]
  IC50: Not Active
[2]
  IC50: Not Active
[3]
  IC50: Not Active
[4]
  IC50: Not Active
[7]
  IC50: Not Active
[8]
  IC50: Not Active
[9]
  IC50: Not Active
[11]
  IC50: Not Active
[12]
  IC50: Not Active
[13]; insect cells
  IC50: Not Active
[14]
  IC50: Not Active
[15]; read-out: IC50
  IC50: 71 nM
[15]; read-out: Ki
  Ki: 33 nM

## COc1cccc(C2(O)CCCCC2CN(C)C)c1 (configuration not stated) [TRAMADOL]
[16]
  IC50: Not Active
  Ki: Not Active
[1]
  IC50: Not Active
[2]
  IC50: Not Active
[3]
  IC50: Not Active
[4]
  IC50: Not Active
[7]
  IC50: Not Active
[8]
  IC50: Not Active
[9]
  IC50: Not Active
[10]
  IC50: Not Active
[11]
  IC50: Not Active
[12]
  IC50: Not Active
[13]; insect cells
  IC50: Not Active
[14]
  IC50: Not Active
[15]; hela
  IC50: Not Active

## COC(=O)[C@@H]1[C@H]2C[C@H]3c4[nH]c5ccccc5c4CCN3C[C@@H]2CC[C@@H]1O [YOHIMBINE]
[1]
  IC50: Not Active
[2]
  IC50: Not Active
[3]
  IC50: Not Active
[4]
  IC50: Not Active
[5]
  IC50: Not Active
  Ki: Not Active
[6]
  IC50: Not Active
  Ki: Not Active
[7]
  IC50: Not Active
[8]
  IC50: Not Active
[9]
  IC50: Not Active
[10]
  IC50: Not Active
[11]
  IC50: Not Active
[12]
  IC50: Not Active
[13]; insect cells
  IC50: Not Active
[14]
  IC50: Not Active
